Structures can show the parent of a compound that is named as a salt. Calls of active or inactive are those of the source. The rule behind the calls is not given here.
Tests used:
Carbonic anhydrase 1 = Carbonic anhydrase 1 (Homo sapiens, UniProt P00915); assay: Inhibition of human CA1 pre-incubated for 15 mins by stopped-flow CO2 hydration method
Carbonic anhydrase 2 = Carbonic anhydrase 2 (Homo sapiens, UniProt P00918); assay: Inhibition of human CA2 pre-incubated for 15 mins by stopped-flow CO2 hydration method
Carbonic anhydrase 9 = Carbonic anhydrase 9 (Homo sapiens, UniProt Q16790); assay: Inhibition of human CA9 pre-incubated for 15 mins by stopped-flow CO2 hydration method
Carbonic anhydrase 12 = Carbonic anhydrase 12 (Homo sapiens, UniProt O43570); assay: Inhibition of human CA12 pre-incubated for 15 mins by stopped-flow CO2 hydration method
Chain of Carbonic anhydrase 12 (O43570 whole entry): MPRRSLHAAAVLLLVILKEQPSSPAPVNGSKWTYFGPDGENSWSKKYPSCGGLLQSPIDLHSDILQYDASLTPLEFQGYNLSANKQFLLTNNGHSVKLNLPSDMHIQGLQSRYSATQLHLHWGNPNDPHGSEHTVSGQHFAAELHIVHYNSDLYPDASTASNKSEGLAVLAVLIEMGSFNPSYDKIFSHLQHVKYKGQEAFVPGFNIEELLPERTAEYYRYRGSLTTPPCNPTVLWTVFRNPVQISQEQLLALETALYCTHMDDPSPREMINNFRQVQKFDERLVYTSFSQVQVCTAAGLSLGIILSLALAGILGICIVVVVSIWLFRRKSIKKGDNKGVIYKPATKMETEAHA

Oryctolagus cuniculus [1] = assay: Antiglaucoma activity in carbomer-induced glaucoma in albino rabbit assessed as reduction in intra ocular pressure dosed as 2% compound solution measured 3 to 4 hrs post dose; type: functional, organism-based; conditions: Eye
Oryctolagus cuniculus [2] = assay: Antiglaucoma activity in carbomer-induced glaucoma in albino rabbit assessed as reduction in intra ocular pressure dosed as 2% compound solution measured 2 hrs post dose (vehicle treated contralateral eye Rvb = 37 to 40 mmHg); type: functional
Oryctolagus cuniculus [3] = assay: Antiglaucoma activity in carbomer-induced glaucoma in albino rabbit assessed as reduction in intra ocular pressure dosed as 2% compound solution; type: functional, organism-based; conditions: Eye, TDE = time-dependent effect
Oryctolagus cuniculus [4] = assay: Antiglaucoma activity in carbomer-induced glaucoma in albino rabbit assessed as reduction in intra ocular pressure dosed as 2% compound solution measured 2 hrs post dose (vehicle treated contralateral eye Rvb = 37 to 39 mmHg); type: functional

Chain of Carbonic anhydrase 1 (P00915 whole entry): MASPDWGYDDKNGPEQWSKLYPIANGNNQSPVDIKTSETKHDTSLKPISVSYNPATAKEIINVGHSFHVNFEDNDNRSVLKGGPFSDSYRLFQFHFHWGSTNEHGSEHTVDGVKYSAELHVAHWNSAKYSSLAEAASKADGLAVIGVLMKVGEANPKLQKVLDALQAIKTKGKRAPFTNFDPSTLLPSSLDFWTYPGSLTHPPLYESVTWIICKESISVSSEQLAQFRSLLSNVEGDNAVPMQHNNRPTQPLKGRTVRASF

Row | SMILES | Ki (Carbonic anhydrase 9) | also measured
1 | S=C(S)N1CCCC1 | 70.4 nM | Ki (Carbonic anhydrase 1): 0.96 nM; Ki (Carbonic anhydrase 2): 27.5 nM; Ki (Carbonic anhydrase 12): 46.1 nM
2 | S=C(S)NCc1ccncc1 | 26 nM | –
3 | S=C(S)Nc1nccs1 | 12.6 nM | –
4 | S=C(S)NCCCn1ccnc1 | 4.3 nM | –
5 | N#CC1(c2ccccc2)CCN(C(=S)S)CC1 | 757 nM | –
6 | CCCCN(CCCC)C(=S)S [DIBUTYLCARBAMODITHIOATE SODIUM SALT] | 50.3 nM | –
7 | CCCN(CCC)C(=S)S [DIPROPYLCARBAMODITHIOATE SODIUM SALT] | 53.8 nM | –
8 | CCN(CC)C(=S)S [DITIOCARB SODIUM] | 1410 nM | Ki (Carbonic anhydrase 12): 1100 nM
9 | S=C([S-])N1CCOCC1.[Na+] [MORPHOLINECARBAMODITHIOATE SODIUM SALT] | 6.2 nM | Activity (Oryctolagus cuniculus [1]): Active; Activity (Oryctolagus cuniculus [2]): 6 mmHg; Activity (Oryctolagus cuniculus [3]): tde
10 | S=C([S-])N1CCN(C(=S)[S-])CC1.[Na+].[Na+] [PIPERAZINECARBAMODITHIOATE DISODIUM SALT] | 37.5 nM | Activity (Oryctolagus cuniculus [4]): 6 mmHg; Activity (Oryctolagus cuniculus [1]): Active; Activity (Oryctolagus cuniculus [3]): tde
11 | CN(Cc1ccccc1)C(=S)S [SODIUM BENZYL(METHYL)CARBAMODITHIOATE] | 53 nM | –
12 | S=C(S)NCc1ccccc1 [SODIUM BENZYLCARBAMODITHIOATE] | 19.2 nM | –
13 | CN(C)C(=S)S [SODIUM DIMETHYLCARBAMODITHIOATE] | 714 nM | Ki (Carbonic anhydrase 1): 699 nM; Ki (Carbonic anhydrase 2): 6910 nM; Ki (Carbonic anhydrase 12): 798 nM

Continued by falling Ki (Carbonic anhydrase 9), values first:

Row | Ki (Carbonic anhydrase 9) | SMILES | also measured
14 | 57.1 nM | O=C(O)CNC(=S)S | –
15 | 29.1 nM | S=C(S)NN1CCOCC1 [POTASSIUM MORPHOLINOCARBAMODITHIOATE] | –
16 | 28.2 nM | CN(C(=S)S)c1ccccc1 [SODIUM METHYL(PHENYL)CARBAMODITHIOATE] | –
17 | 27.4 nM | S=C(S)NCCN(CCNC(=S)S)CCNC(=S)S | –
18 | 27.4 nM | CCCCCCN(CCCCCC)C(=S)S [DIHEXYLCARBAMODITHIOATE SODIUM SALT] | –
19 | 25.9 nM | CCCCN(CC)C(=S)S [ETHYLBUTYLCARBAMODITHIOATE SODIUM SALT] | –
20 | 22.1 nM | CN1CCN(NC(=S)S)CC1 | –
21 | 4.6 nM | CCC(C)NC(=S)S (racemic) | –
22 | 4.5 nM | S=C(S)NCCN1CCOCC1 | –
23 | 4.5 nM | CC(C)CN(CC(C)C)C(=S)S [DIISOBUTYLCARBODITHIOIC ACID SODIUM SALT] | –
24 | 4.3 nM | OCCN(CCO)C(=S)S | –
25 | 4.2 nM | S=C(S)Nc1ccccc1 [TRIETHYLAMMONIUM PHENYLCARBAMODITHIOATE] | –
26 | 4.1 nM | O=C(O)[C@@H]1CCCN1C(=S)S | –
27 | 3.6 nM | S=C(S)NCCN1CCCCC1 | –

— ChEMBL document CHEMBL2021877, “Dithiocarbamates strongly inhibit carbonic anhydrases and show antiglaucoma action in vivo” (J Med Chem, 2012)
